In assay [1] the target is D(2) dopamine receptor (Homo sapiens) (UniProt P14416). Briefly: Antagonist activity at human DRD2L expressed in CHO-K1 cells at 20 uM by PathHunter beta-arrestin assay relative to control. Format: cell-based. The conditions noted are these: filed as antagonist.
Assay [2] has the same target. Nature of the assay: Agonist activity at human DRD2L expressed in CHO-K1 cells at 20 uM by PathHunter beta-arrestin assay relative to control. Type of assay: cell-based.
Assay [3] addresses T1, Oxytocin receptor (Homo sapiens) (UniProt P30559).
T1 sequence (whole entry): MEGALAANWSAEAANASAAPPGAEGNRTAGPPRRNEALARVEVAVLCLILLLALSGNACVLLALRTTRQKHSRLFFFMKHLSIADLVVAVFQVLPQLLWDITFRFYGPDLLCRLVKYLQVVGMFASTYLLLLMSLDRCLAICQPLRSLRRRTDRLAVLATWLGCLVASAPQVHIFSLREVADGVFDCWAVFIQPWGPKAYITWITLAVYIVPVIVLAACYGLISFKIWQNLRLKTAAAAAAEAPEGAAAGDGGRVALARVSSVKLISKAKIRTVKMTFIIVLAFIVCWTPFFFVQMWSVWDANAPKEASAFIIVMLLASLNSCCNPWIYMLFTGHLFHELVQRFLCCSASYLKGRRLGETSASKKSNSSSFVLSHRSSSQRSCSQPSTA
Briefly: Antagonist activity at human OXTR expressed in CHO-K1 cells at 20 uM by PathHunter beta-arrestin assay relative to control. Format: cell-based.

In assay [4] the target is T2, Vasopressin V2 receptor (Homo sapiens, UniProt P30518). Briefly: Agonist activity at human AVPR2 at 20 uM by PathHunter beta-arrestin assay relative to control.
The target in assay [5] is T3, C-C chemokine receptor type 3 (Homo sapiens) (UniProt P51677).
T3 sequence (whole entry): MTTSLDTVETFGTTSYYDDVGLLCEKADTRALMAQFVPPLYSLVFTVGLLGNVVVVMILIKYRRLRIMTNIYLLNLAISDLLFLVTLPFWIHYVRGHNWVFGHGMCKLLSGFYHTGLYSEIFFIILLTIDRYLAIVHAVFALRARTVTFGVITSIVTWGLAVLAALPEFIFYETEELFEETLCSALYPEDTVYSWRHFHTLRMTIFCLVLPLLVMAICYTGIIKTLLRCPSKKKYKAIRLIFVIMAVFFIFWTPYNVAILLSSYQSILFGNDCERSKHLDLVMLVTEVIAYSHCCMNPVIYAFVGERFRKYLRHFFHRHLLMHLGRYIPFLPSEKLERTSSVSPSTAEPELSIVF
Nature of the assay: Agonist activity at human CCR3 expressed in CHO-K1 cells at 20 uM by PathHunter beta-arrestin assay relative to control. Type of assay: cell-based.

Assay [6] concerns the target T4, CX3C chemokine receptor 1 (Homo sapiens) (UniProt P49238).
T4 sequence (whole entry): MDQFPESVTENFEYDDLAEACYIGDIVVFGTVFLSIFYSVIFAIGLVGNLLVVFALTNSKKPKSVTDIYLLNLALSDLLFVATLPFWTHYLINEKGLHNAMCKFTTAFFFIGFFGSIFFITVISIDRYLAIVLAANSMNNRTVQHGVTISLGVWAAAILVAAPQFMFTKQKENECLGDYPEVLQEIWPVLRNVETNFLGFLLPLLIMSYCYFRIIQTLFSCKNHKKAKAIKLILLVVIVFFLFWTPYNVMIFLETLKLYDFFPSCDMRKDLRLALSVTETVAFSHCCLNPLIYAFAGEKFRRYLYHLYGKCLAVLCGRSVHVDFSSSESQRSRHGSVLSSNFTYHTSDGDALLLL
Nature of the assay: Antagonist activity at human CX3CR1 expressed in CHO-K1 cells at 20 uM by PathHunter beta-arrestin assay relative to control. Format: cell-based. The conditions noted are these: filed as antagonist.

The target in assay [7] is T3, C-C chemokine receptor type 3 (Homo sapiens). Briefly: Antagonist activity at human CCR3 expressed in CHO-K1 cells at 20 uM by PathHunter beta-arrestin assay relative to control. Format: cell-based. The conditions noted are these: filed as antagonist.
The target of assay [8] is T5, Follicle-stimulating hormone receptor (Homo sapiens, UniProt P23945).
T5 sequence (P23945 whole entry): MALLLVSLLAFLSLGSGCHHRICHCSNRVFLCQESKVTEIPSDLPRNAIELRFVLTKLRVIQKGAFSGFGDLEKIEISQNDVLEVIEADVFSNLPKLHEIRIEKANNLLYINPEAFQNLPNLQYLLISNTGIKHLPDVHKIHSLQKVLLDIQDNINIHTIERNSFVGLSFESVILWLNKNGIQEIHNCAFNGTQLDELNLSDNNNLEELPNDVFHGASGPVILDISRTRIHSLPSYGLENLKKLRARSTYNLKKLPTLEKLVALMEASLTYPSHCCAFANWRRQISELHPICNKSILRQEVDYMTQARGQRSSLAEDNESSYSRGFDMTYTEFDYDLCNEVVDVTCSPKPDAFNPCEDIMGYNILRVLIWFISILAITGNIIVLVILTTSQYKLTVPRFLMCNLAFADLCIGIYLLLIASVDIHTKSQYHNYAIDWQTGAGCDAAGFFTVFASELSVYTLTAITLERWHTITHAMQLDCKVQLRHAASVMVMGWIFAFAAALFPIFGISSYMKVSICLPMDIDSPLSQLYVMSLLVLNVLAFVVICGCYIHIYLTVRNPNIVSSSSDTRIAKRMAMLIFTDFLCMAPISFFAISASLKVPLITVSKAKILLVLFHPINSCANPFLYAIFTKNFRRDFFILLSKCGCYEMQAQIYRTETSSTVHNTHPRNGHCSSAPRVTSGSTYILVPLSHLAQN
Briefly: Antagonist activity at human FSHR expressed in CHO-K1 cells by PathHunter beta-arrestin assay. Format: cell-based.

Assay [9] concerns the target T1, Oxytocin receptor (Homo sapiens). Nature of the assay: Agonist activity at human OXTR expressed in CHO-K1 cells at 20 uM by PathHunter beta-arrestin assay relative to control. Type of assay: cell-based.
Assay [10] deals with T6, C-X-C chemokine receptor type 4 (Homo sapiens, UniProt P61073). Nature of the assay: Agonist activity at human CXCR4 expressed in mouse C2C12 cells at 20 uM by PathHunter beta-arrestin assay relative to control. Type of assay: cell-based.
For assay [11], the target named is T7, C-C chemokine receptor type 8 (Homo sapiens, UniProt P51685). Nature of the assay: Agonist activity at human CCR8 expressed in CHO-K1 cells at 20 uM by PathHunter beta-arrestin assay relative to control. Format: cell-based.
Assay [12] deals with U2OS. Briefly: Antagonist activity at NPSR1B in human U2OS cells at 20 uM by PathHunter beta-arrestin assay relative to control. Type of assay: cell-based. The conditions noted are these: filed as antagonist.
The target in assay [13] is T4, CX3C chemokine receptor 1 (Homo sapiens). Nature of the assay: Agonist activity at human CX3CR1 expressed in CHO-K1 cells at 20 uM by PathHunter beta-arrestin assay relative to control. Type of assay: cell-based.
Assay [14] has as its target T8, Follicle-stimulating hormone receptor (Homo sapiens) (UniProt P23945).
T8 sequence (whole entry): T5 sequence (P23945 whole entry)
Briefly: Antagonist activity at human FSHR expressed in CHO-K1 cells at 20 uM by PathHunter beta-arrestin assay relative to control. Type of assay: cell-based. The conditions noted are these: filed as antagonist.

Assay [15] addresses T9, Prolactin-releasing peptide receptor (Homo sapiens, UniProt P49683).
T9 sequence (P49683 whole entry): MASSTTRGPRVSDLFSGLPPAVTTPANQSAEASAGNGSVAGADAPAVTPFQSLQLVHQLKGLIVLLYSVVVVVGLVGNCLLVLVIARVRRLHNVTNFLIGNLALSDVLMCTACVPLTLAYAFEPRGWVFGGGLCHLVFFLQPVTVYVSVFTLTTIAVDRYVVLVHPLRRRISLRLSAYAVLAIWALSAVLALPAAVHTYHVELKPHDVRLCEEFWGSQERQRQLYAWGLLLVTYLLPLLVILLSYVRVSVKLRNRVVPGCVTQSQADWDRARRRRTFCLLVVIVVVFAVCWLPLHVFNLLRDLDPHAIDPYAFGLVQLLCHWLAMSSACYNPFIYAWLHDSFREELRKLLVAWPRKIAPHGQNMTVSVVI
Briefly: Antagonist activity at human PRLHR expressed in CHO-K1 cells by PathHunter beta-arrestin assay. Format: cell-based.

Assay [16] deals with T10, Prolactin-releasing peptide receptor (Homo sapiens) (UniProt P49683).
T10 sequence (whole entry): T9 sequence (P49683 whole entry)
Nature of the assay: Antagonist activity at human PRLHR expressed in CHO-K1 cells at 20 uM by PathHunter beta-arrestin assay relative to control. Format: cell-based. The conditions noted are these: filed as antagonist.

Assay [17] has as its target T8, Follicle-stimulating hormone receptor (Homo sapiens). Briefly: Agonist activity at human FSHR expressed in CHO-K1 cells at 20 uM by PathHunter beta-arrestin assay relative to control. Format: cell-based.
The target in assay [18] is T10, Prolactin-releasing peptide receptor (Homo sapiens). Nature of the assay: Agonist activity at human PRLHR expressed in CHO-K1 cells at 20 uM by PathHunter beta-arrestin assay relative to control. Format: cell-based.
In assay [19] the target is T2, Vasopressin V2 receptor. Briefly: Antagonist activity at human AVPR2 at 20 uM by PathHunter beta-arrestin assay relative to control. The conditions noted are these: filed as antagonist.
The target of assay [20] is T7, C-C chemokine receptor type 8. Nature of the assay: Antagonist activity at human CCR8 expressed in CHO-K1 cells at 20 uM by PathHunter beta-arrestin assay relative to control. Type of assay: cell-based. The conditions noted are these: filed as antagonist.
Assay [21] in a line: Antagonist activity at NPSR1B in human U2OS cells by PathHunter beta-arrestin assay. Type of assay: cell-based.
Assay [22] concerns U2OS. Briefly: Agonist activity at NPSR1B in human U2OS cells at 20 uM by PathHunter beta-arrestin assay relative to control. Type of assay: cell-based.
The target in assay [23] is T6, C-X-C chemokine receptor type 4. Nature of the assay: Antagonist activity at human CXCR4 expressed in mouse C2C12 cells at 20 uM by PathHunter beta-arrestin assay relative to control. Format: cell-based. The conditions noted are these: filed as antagonist.

SMILES strings stand for the structures. The source made the active and inactive calls. No cut-off for these calls is given here.

Chain of D(2) dopamine receptor (Homo sapiens) (P14416 whole entry): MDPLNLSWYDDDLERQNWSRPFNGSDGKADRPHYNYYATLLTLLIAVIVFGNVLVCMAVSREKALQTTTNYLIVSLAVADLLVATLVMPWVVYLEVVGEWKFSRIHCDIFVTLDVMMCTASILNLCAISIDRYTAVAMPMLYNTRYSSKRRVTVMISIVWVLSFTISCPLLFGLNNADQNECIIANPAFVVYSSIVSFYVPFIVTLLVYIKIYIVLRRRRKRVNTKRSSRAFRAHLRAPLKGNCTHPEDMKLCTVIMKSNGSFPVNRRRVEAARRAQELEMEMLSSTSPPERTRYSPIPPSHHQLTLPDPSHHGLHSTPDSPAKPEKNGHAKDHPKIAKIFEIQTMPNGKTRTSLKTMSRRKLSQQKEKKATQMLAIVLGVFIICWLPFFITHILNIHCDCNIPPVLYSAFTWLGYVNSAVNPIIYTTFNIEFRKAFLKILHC
T7 sequence (P51685 whole entry): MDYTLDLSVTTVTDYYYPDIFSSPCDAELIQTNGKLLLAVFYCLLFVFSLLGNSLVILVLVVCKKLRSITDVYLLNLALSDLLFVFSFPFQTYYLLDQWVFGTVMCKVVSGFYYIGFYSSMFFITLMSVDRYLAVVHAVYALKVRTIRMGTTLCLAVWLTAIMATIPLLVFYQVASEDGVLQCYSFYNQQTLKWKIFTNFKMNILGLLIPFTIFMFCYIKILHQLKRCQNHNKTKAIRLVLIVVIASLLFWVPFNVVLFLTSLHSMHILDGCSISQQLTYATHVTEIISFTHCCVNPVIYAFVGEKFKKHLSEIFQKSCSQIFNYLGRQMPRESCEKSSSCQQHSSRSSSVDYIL
T6 sequence (P61073 whole entry): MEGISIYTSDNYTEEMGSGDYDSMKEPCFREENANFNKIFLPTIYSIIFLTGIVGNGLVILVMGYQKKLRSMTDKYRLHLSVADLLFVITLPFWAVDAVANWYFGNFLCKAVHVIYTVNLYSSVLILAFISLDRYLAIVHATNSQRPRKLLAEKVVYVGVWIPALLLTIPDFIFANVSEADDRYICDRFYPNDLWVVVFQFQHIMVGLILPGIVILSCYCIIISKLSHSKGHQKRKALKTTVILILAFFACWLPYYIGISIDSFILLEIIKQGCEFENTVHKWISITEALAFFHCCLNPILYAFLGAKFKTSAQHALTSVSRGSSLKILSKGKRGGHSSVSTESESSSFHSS
T2 sequence (P30518 whole entry): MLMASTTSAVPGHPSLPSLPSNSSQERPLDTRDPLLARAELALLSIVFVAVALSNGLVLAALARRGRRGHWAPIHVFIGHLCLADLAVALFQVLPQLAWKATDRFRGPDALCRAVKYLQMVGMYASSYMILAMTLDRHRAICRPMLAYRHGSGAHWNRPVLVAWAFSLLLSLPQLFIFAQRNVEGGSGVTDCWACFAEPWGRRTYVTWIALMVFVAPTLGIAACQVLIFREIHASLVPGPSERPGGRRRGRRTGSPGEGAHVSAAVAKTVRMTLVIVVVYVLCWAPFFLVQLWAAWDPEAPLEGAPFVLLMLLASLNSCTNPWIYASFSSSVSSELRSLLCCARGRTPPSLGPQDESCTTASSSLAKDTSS

As to `COC(=O)[C@@H]1[C@H]2C[C@@H](OCc3ccc(Br)cc3)c3[nH]c4ccccc4c3CCN(C#N)C[C@@H]2CC[C@@H]1O`, the inhibition was 10% in [1]; -7% in assay [3]; 53% in assay [6]; 50% in [7]; 87% in the assay with U2OS [12]; 94% in [14]. In addition, the inhibition in assay [16] stood at 82%; on Vasopressin V2 receptor [19], 1%; in [20], 78%; in assay [23], 29%. The result (in assay [2]; on Vasopressin V2 receptor [4]; in [5]; in assay [9]; in assay [10]; in assay [11]) was inactive. The outcome (in assay [13]; in assay [17]; in [18]; with U2OS [22]) was inactive. Besides, the IC50 in [8] is 8.03 µM; in assay [15], 4.89 µM; in assay [21], 10.3 µM.

Usually inhibition stands for the drop in the measured response relative to a control, in per cent. As usually defined, the IC50 is the point on the concentration scale where inhibition reaches its midpoint. Higher therefore signals weaker potency in that assay.

(Values after ChEMBL document CHEMBL4725259 (Bioorg Med Chem, 2020).)
